# Source: ChEMBL document CHEMBL3046685, “Otebo bean (Phaseolus vulgaris) sensitivity to pre-emergence herbicides” (Crop Prot, 2006)
# Columns and labels:
# Phaseolus vulgaris [1] = assay: Phytotoxicity in Phaseolus vulgaris (otebo bean) assessed as shoot dry weight at 1000 g ai/ha applied as spray during pre-emergence treatment for 1 to 2 days measured 42 days post emergence (reference value: 164 g); type: organism-based; details: in vivo, other
# Phaseolus vulgaris [2] = assay: Phytotoxicity in Phaseolus vulgaris (otebo bean) assessed as visual injury at 1000 g ai/ha applied as spray during pre-emergence treatment for 1 to 2 days measured 7 days post emergence relative to untreated control; type: organism-based; details: in vivo, other
# Phaseolus vulgaris [3] = assay: Phytotoxicity in Phaseolus vulgaris (otebo bean) assessed as visual injury at 2000 g ai/ha applied as spray during pre-emergence treatment for 1 to 2 days measured 14 days post emergence relative to untreated control; type: organism-based; details: in vivo, other
# Phaseolus vulgaris [4] = assay: Phytotoxicity in Phaseolus vulgaris (otebo bean) assessed as visual injury at 2000 g ai/ha applied as spray during pre-emergence treatment for 1 to 2 days measured 28 days post emergence relative to untreated control; type: organism-based; details: in vivo, other
# Phaseolus vulgaris [5] = assay: Phytotoxicity in Phaseolus vulgaris (otebo bean) assessed as shoot dry weight at 2000 g ai/ha applied as spray during pre-emergence treatment for 1 to 2 days measured 42 days post emergence (reference value: 164 g); type: organism-based; details: in vivo, other
# Phaseolus vulgaris [6] = assay: Phytotoxicity in Phaseolus vulgaris (otebo bean) assessed as change in moisture content at 1000 to 2000 g ai/ha applied as spray during preemergence treatment for 1 to 2 days; type: organism-based; details: in vivo, other
# Phaseolus vulgaris [7] = assay: Phytotoxicity in Phaseolus vulgaris (otebo bean) assessed as visual injury at 2000 g ai/ha applied as spray during pre-emergence treatment for 1 to 2 days measured 7 days post emergence relative to untreated control; type: organism-based; details: in vivo, other
# Phaseolus vulgaris [8] = assay: Phytotoxicity in Phaseolus vulgaris (otebo bean) assessed as plant height at 2000 g ai/ha applied as spray during pre-emergence treatment for 1 to 2 days measured 28 days post emergence (reference value: 29 cm); type: organism-based; details: in vivo, other
# Phaseolus vulgaris [9] = assay: Increase in Phaseolus vulgaris (otebo bean) yield at 1000 g ai/ha applied as spray during pre-emergence treatment for 1 to 2 days (reference value: 3.8 t/ha); type: functional
# Phaseolus vulgaris [10] = assay: Phytotoxicity in Phaseolus vulgaris (otebo bean) assessed as visual injury at 1000 g ai/ha applied as spray during pre-emergence treatment for 1 to 2 days measured 28 days post emergence relative to untreated control; type: organism-based; details: in vivo, other
# Phaseolus vulgaris [11] = assay: Phytotoxicity in Phaseolus vulgaris (otebo bean) assessed as visual injury at 1000 g ai/ha applied as spray during pre-emergence treatment for 1 to 2 days measured 14 days post emergence relative to untreated control; type: organism-based; details: in vivo, other
# Phaseolus vulgaris [12] = assay: Increase in Phaseolus vulgaris (otebo bean) yield at 2000 g ai/ha applied as spray during pre-emergence treatment for 1 to 2 days (reference value: 3.8 t/ha); type: functional
# Phaseolus vulgaris [13] = assay: Phytotoxicity in Phaseolus vulgaris (otebo bean) assessed as plant height at 1000 g ai/ha applied as spray during pre-emergence treatment for 1 to 2 days measured 28 days post emergence (reference value: 29 cm); type: organism-based; details: in vivo, other
# Phaseolus vulgaris [14] = assay: Phytotoxicity in Phaseolus vulgaris (otebo bean) assessed as visual injury at 2500 g ai/ha applied as spray during pre-emergence treatment for 1 to 2 days measured 7 days post emergence relative to untreated control; type: organism-based; details: in vivo, other
# Phaseolus vulgaris [15] = assay: Phytotoxicity in Phaseolus vulgaris (otebo bean) assessed as shoot dry weight at 1250 g ai/ha applied as spray during pre-emergence treatment for 1 to 2 days measured 42 days post emergence (reference value: 164 g); type: organism-based; details: in vivo, other
# Phaseolus vulgaris [16] = assay: Phytotoxicity in Phaseolus vulgaris (otebo bean) assessed as visual injury at 2500 g ai/ha applied as spray during pre-emergence treatment for 1 to 2 days measured 14 days post emergence relative to untreated control; type: organism-based; details: in vivo, other
# Phaseolus vulgaris [17] = assay: Phytotoxicity in Phaseolus vulgaris (otebo bean) assessed as visual injury at 1250 g ai/ha applied as spray during pre-emergence treatment for 1 to 2 days measured 7 days post emergence relative to untreated control; type: organism-based; details: in vivo, other
# Phaseolus vulgaris [18] = assay: Phytotoxicity in Phaseolus vulgaris (otebo bean) assessed as plant height at 1250 g ai/ha applied as spray during pre-emergence treatment for 1 to 2 days measured 28 days post emergence (reference value: 29 cm); type: organism-based; details: in vivo, other
# Phaseolus vulgaris [19] = assay: Increase in Phaseolus vulgaris (otebo bean) yield at 2500 g ai/ha applied as spray during pre-emergence treatment for 1 to 2 days (reference value: 3.8 t/ha); type: functional
# Phaseolus vulgaris [20] = assay: Phytotoxicity in Phaseolus vulgaris (otebo bean) assessed as plant height at 2500 g ai/ha applied as spray during pre-emergence treatment for 1 to 2 days measured 28 days post emergence (reference value: 29 cm); type: organism-based; details: in vivo, other
# Vigna angularis [21] = assay: Phytotoxicity in Vigna angularis (adzuki bean) assessed as visual injury at 2500 g ai/ha applied prior to planting relative to control; type: organism-based; details: in vivo, other
# Phaseolus vulgaris [22] = assay: Increase in Phaseolus vulgaris (otebo bean) yield at 1250 g ai/ha applied as spray during pre-emergence treatment for 1 to 2 days (reference value: 3.8 t/ha); type: functional
# Vigna angularis [23] = assay: Phytotoxicity in Vigna angularis (adzuki bean) assessed as reduction in shoot dry weight at 2500 g ai/ha applied prior to planting relative to control; type: organism-based; design: scale not given: the % may be the effect or the level left; details: in vivo, other
# Phaseolus vulgaris [24] = assay: Phytotoxicity in Phaseolus vulgaris (otebo bean) assessed as visual injury at 1250 g ai/ha applied as spray during pre-emergence treatment for 1 to 2 days measured 28 days post emergence relative to untreated control; type: organism-based; details: in vivo, other
# Phaseolus vulgaris [25] = assay: Phytotoxicity in Phaseolus vulgaris (otebo bean) assessed as change in moisture content at 1250 to 2500 g ai/ha applied as spray during preemergence treatment for 1 to 2 days; type: organism-based; details: in vivo, other
# Phaseolus vulgaris [26] = assay: Phytotoxicity in Phaseolus vulgaris (otebo bean) assessed as shoot dry weight at 2500 g ai/ha applied as spray during pre-emergence treatment for 1 to 2 days measured 42 days post emergence (reference value: 164 g); type: organism-based; details: in vivo, other
# Vigna angularis [27] = assay: Phytotoxicity in Vigna angularis (adzuki bean) assessed as reduction in crop yield at 2500 g ai/ha applied prior to planting relative to control; type: organism-based; details: in vivo, other
# Phaseolus vulgaris [28] = assay: Phytotoxicity in Phaseolus vulgaris (otebo bean) assessed as visual injury at 2500 g ai/ha applied as spray during pre-emergence treatment for 1 to 2 days measured 28 days post emergence relative to untreated control; type: organism-based; details: in vivo, other
# Phaseolus vulgaris [29] = assay: Phytotoxicity in Phaseolus vulgaris (otebo bean) assessed as visual injury at 1250 g ai/ha applied as spray during pre-emergence treatment for 1 to 2 days measured 14 days post emergence relative to untreated control; type: organism-based; details: in vivo, other
structure (smiles),measurement,setting,value
CC1(C)CON(Cc2ccccc2Cl)C1=O [CLOMAZONE],Activity,Phaseolus vulgaris [1],143 g
same,Activity,Phaseolus vulgaris [2],5%
same,Activity,Phaseolus vulgaris [3],12%
same,Activity,Phaseolus vulgaris [4],9%
same,Activity,Phaseolus vulgaris [5],123 g
same,Activity,Phaseolus vulgaris [6],Non-toxic
same,Activity,Phaseolus vulgaris [7],13%
same,Activity,Phaseolus vulgaris [8],26 cm
same,Crop_yield,Phaseolus vulgaris [9],4.5 tons/ha
same,Activity,Phaseolus vulgaris [10],2%
same,Activity,Phaseolus vulgaris [11],5%
same,Crop_yield,Phaseolus vulgaris [12],4.1 tons/ha
same,Activity,Phaseolus vulgaris [13],28 cm
COCC(C)N(C(=O)CCl)c1c(C)csc1C (centres undefined) [DIMETHENAMID],Activity,Phaseolus vulgaris [14],4%
same,Activity,Phaseolus vulgaris [15],167 g
same,Activity,Phaseolus vulgaris [16],3%
same,Activity,Phaseolus vulgaris [17],1%
same,Activity,Phaseolus vulgaris [18],30 cm
same,Crop_yield,Phaseolus vulgaris [19],4.5 tons/ha
same,Activity,Phaseolus vulgaris [20],29 cm
same,Activity,Vigna angularis [21],37%
same,Crop_yield,Phaseolus vulgaris [22],4.5 tons/ha
same,Activity,Vigna angularis [23],53%
same,Activity,Phaseolus vulgaris [24],0%
same,Activity,Phaseolus vulgaris [25],Non-toxic
same,Activity,Phaseolus vulgaris [26],154 g
same,Crop_yield,Vigna angularis [27],38%
same,Activity,Phaseolus vulgaris [28],1%
same,Activity,Phaseolus vulgaris [29],1%
